ChEMBL document CHEMBL5357084, “Structure-Guided Discovery of Diverse Cytotoxic Dimeric Xanthones/Chromanones from Penicillium chrysogenum C-7-2-1 and Their Interconversion Properties” (J Nat Prod, 2024)
Active and inactive are the calls of the source. The rule behind the calls is not given here.

How the values were obtained:
[1] = system: BEAS-2B; test: Cytotoxicity against human BEAS-2B cells assessed as inhibition of cell growth at 50 uM measured after 48 hrs by MTT assay relative to control; assay type: functional
[2] = system: Caco-2; test: Cytotoxicity against human Caco-2 cells assessed as inhibition of cell growth at 50 uM measured after 48 hrs by MTT assay relative to control; assay type: functional; design: scale not given: the % may be the effect or the level left
[3] = system: SW-620; test: Cytotoxicity against human SW620 cells assessed as inhibition of cell growth at 50 uM measured after 48 hrs by MTT assay relative to control; assay type: functional
[4] = system: NCI-H23; test: Cytotoxicity against human NCI-H23 cells […] at 50 uM measured after 48 hrs by MTT assay relative to control; assay type: functional
[5] = system: A-375; test: Cytotoxicity against human A-375 cells […] at 50 uM measured after 48 hrs by MTT assay relative to control; assay type: functional
[6] = system: NCI-H1299; test: Cytotoxicity against human NCI-H1299 cells assessed as inhibition of cell growth at 50 uM measured after 48 hrs by MTT assay relative to control; assay type: functional; design: scale not given: the % may be the effect or the level left
[7] = system: Caco-2; test: Cytotoxicity against human Caco-2 cells assessed as inhibition of cell growth measured after 48 hrs by MTT assay; assay type: functional, cell-based; settings: Caco-2, 48 h
[8] = system: NCI-H1299; test: Cytotoxicity against human NCI-H1299 cells assessed as inhibition of cell growth measured after 48 hrs by MTT assay; assay type: functional, cell-based; settings: NCI-H1299, 48 h
[9] = system: BEAS-2B; test: Cytotoxicity against human BEAS-2B cells assessed as inhibition of cell growth measured after 48 hrs by MTT assay; assay type: functional, cell-based
[10] = system: NCI-H23; test: Cytotoxicity against human NCI-H23 cells assessed as inhibition of cell growth measured after 48 hrs by MTT assay; assay type: functional, cell-based; settings: NCI-H23, 48 h
[11] = system: SW-620; test: Cytotoxicity against human SW620 cells assessed as inhibition of cell growth measured after 48 hrs by MTT assay; assay type: functional, cell-based
[12] = system: A-375; test: Cytotoxicity against human A-375 cells assessed as inhibition of cell growth measured after 48 hrs by MTT assay; assay type: functional, cell-based; settings: A-375, 48 h
[13] = system: NCI-H23; test: Induction of apoptosis in human NCI-H23 cells assessed as apoptosis rate incubated for 24 hrs by annexin V-FITC and propidium iodide staining based flow cytometry analysis; assay type: functional, cell-based; settings: dose 5-10 µM
[14] = system: NCI-H23; test: Induction of cell cycle arrest in human NCI-H23 cells assessed as accumulation of cells at G2/M phase at 10 uM incubated for 24 hrs by PI staining based flow cytometry analysis (reference value: 27.60+/-0.83%); assay type: functional
[15] = system: NCI-H23; test: Induction of cell cycle arrest in human NCI-H23 cells assessed as accumulation of cells at G1 phase at 10 uM incubated for 24 hrs by PI staining based flow cytometry analysis (reference value: 56.95+/-1.02%); assay type: functional
[16] = system: NCI-H23; test: Induction of cell cycle arrest in human NCI-H23 cells assessed as accumulation of cells at G1 phase at 5 uM incubated for 24 hrs by PI staining based flow cytometry analysis (reference value: 56.95+/-1.02%); assay type: functional
[17] = system: NCI-H23; test: Induction of cell cycle arrest in human NCI-H23 cells assessed as accumulation of cells at S phase at 10 uM incubated for 24 hrs by PI staining based flow cytometry analysis (reference value: 15.45+/-1.79%); assay type: functional
[18] = system: NCI-H23; test: Induction of cell cycle arrest in human NCI-H23 cells assessed as accumulation of cells at SubG1 phase at 5 to 10 uM incubated for 24 hrs by PI staining based flow cytometry analysis (reference value: 0%); assay type: functional; settings: dose 5-10 µM
[19] = system: NCI-H23; test: Induction of apoptosis in human NCI-H23 cells assessed as apoptosis rate at 5 uM incubated for 24 hrs by annexin V-FITC and propidium iodide staining based flow cytometry analysis (reference value: 6.88+/-2.63%); assay type: functional
[20] = system: NCI-H23; test: Induction of cell cycle arrest in human NCI-H23 cells assessed as accumulation of cells at G2/M phase at 5 uM incubated for 24 hrs by PI staining based flow cytometry analysis (reference value: 27.60+/-0.83%); assay type: functional
[21] = system: NCI-H23; test: Induction of apoptosis in human NCI-H23 cells assessed as apoptosis rate at 10 uM incubated for 24 hrs by annexin V-FITC and propidium iodide staining based flow cytometry analysis (reference value: 6.88+/-2.63%); assay type: functional
[22] = system: NCI-H23; test: Induction of cell cycle arrest in human NCI-H23 cells assessed as accumulation of cells at S phase at 5 uM incubated for 24 hrs by PI staining based flow cytometry analysis (reference value: 15.45+/-1.79%); assay type: functional
[23] = Homo sapiens, SW-620, 48 h, read-out: IC50

Row | SMILES | Cell growth relative to control [1] | Activity [2] | Cell growth relative to control [3] | Activity [4] | Activity [5] | Activity [6] | IC50 [7] | IC50 [8] | IC50 ([9]; beas-2b) | IC50 [10] | IC50 [12] | further results
1 | COC(=O)[C@@]12Oc3c(c(O)cc(C)c3-c3ccc4c(c3O)C(=O)C3=C(O)C[C@H](C)[C@H](O)[C@]3(C(=O)OC)O4)C(=O)C1=C(O)CC[C@H]2O | 99.5% | 85% | 106.3% | 82.6% | 79.9% | 81.1% |  |  |  |  |  | 
2 | COC(=O)[C@]1([C@H]2OC(=O)C[C@@H]2C)CC(=O)c2c(ccc(-c3ccc4c(c3O)C(=O)C[C@@](C(=O)OC)([C@H](O)[C@@H](C)CC(=O)O)O4)c2O)O1 | 158.7% | 46.8% | 70.5% | 90.1% | 63% | 76.4% | 25.9 µM | > 50 µM | Not Active | > 50 µM | > 50 µM | IC50 [11, 23]: > 50 µM
3 | COC(=O)C[C@H](C)[C@@H](O)[C@]1(C(=O)OC)CC(=O)c2c(ccc(-c3ccc4c(c3O)C(=O)C[C@](C(=O)OC)([C@@]3(O)OC(=O)C[C@@H]3C)O4)c2O)O1 | 171.6% | 92.1% | 115.5% | 73.6% | 94.4% | 87.9% |  |  |  |  |  | 
4 | COC(=O)[C@@]12Oc3c(-c4ccc5c(c4O)C(=O)C[C@](C(=O)OC)([C@@H]4OC(=O)C[C@@H]4C)O5)ccc(O)c3C(=O)C1=C(O)C[C@H](C)[C@H]2O | 96.8% | 102.4% | 117% | 102.6% | 106% | 66.2% |  |  |  |  |  | 
5 | COC(=O)[C@]12Oc3ccc(-c4ccc5c(c4O)C(=O)C4=C(O)C[C@@H](C)[C@H](O)[C@@]4(C(=O)OC)O5)c(O)c3C(=O)C1=C(O)C[C@@H](C)[C@@H]2O [SECALONIC ACID A] | 107.3% | 54.5% | 80.1% | 8.7% | 75.6% | 73.6% | > 50 µM | > 50 µM | Not Active | 2.6 µM | > 50 µM | IC50 [11, 23]: > 50 µM
6 | COC(=O)[C@@]12Oc3ccc(-c4ccc(O)c5c4O[C@]4(C(=O)OC)C(=C(O)C[C@H](C)[C@@H]4O)C5=O)c(O)c3C(=O)C1=C(O)C[C@H](C)[C@H]2O | 151.6% | 70.2% | 98.6% | 7.2% | 75% | 64.9% | > 50 µM | > 50 µM | Not Active | 6.4 µM | > 50 µM | Activity [13]: Dose-Dependent Effect; Activity [14]: 52.48%; Activity [15]: 38.68%; Activity [16]: 46.56%; Activity [17]: 8.85%; Activity [18]: 0%; Activity [19]: 45.71%; Activity [20]: 38.43%; Activity [21]: 60.11%; Activity [22]: 15%; IC50 ([11]; sw-620): Not Active
7 | CNC(=O)c1cc(Oc2ccc(NC(=O)Nc3ccc(Cl)c(C(F)(F)F)c3)cc2)ccn1 [SORAFENIB] |  |  |  |  |  |  | 1.3 µM | 3.4 µM |  | 2.4 µM | 1.8 µM | IC50 ([9]; Homo sapiens, BEAS-2B, 48 h, read-out: IC50): 31.6 µM; IC50 [11, 23]: 2.3 µM
8 | COC(=O)[C@@]12Oc3c(-c4ccc5c(c4O)C(=O)C[C@](C(=O)OC)([C@H]4OC(=O)C[C@@H]4C)O5)ccc(O)c3C(=O)C1=C(O)C[C@H](C)[C@H]2O | 179.2% | 99.2% | 111% | 82.8% | 86.1% | 64.2% |  |  |  |  |  | 
9 | COC(=O)[C@@]12Oc3ccc(-c4ccc5c(c4O)C(=O)C[C@](C(=O)OC)([C@H]4OC(=O)C[C@@H]4C)O5)c(O)c3C(=O)C1=C(O)C[C@H](C)[C@H]2O | 109.9% | 82.5% | 90.4% | 87.6% | 74.7% | 78.4% |  |  |  |  |  | 
10 | COC(=O)[C@@]1([C@H](O)[C@@H](C)CC(=O)O)CC(=O)c2c(ccc(-c3ccc(O)c4c3O[C@](C(=O)OC)([C@H](O)[C@@H](C)CC(=O)O)CC4=O)c2O)O1 | 110% | 94.4% | 99.3% | 73.1% | 91.7% | 78.6% |  |  |  |  |  | 
11 | COC(=O)[C@@]12Oc3c(-c4ccc(O)c5c4O[C@]4(C(=O)O)C(=C(O)C[C@@H](C)[C@@H]4O)C5=O)ccc(O)c3C(=O)C1=C(O)C[C@H](C)[C@@H]2O | 155.5% | 73.2% | 99.9% | 6.7% | 84.1% | 38.2% | > 50 µM | 30.9 µM | Not Active | 3.9 µM | > 50 µM | IC50 ([11]; sw-620): Not Active
12 | COC(=O)[C@@]12Oc3ccc(-c4ccc(O)c5c4O[C@@](C(=O)OC)([C@H]4OC(=O)C[C@@H]4C)CC5=O)c(O)c3C(=O)C1=C(O)C[C@H](C)[C@H]2O |  | 82.4% | 94.9% | 56% | 76.8% | 65.9% |  |  |  |  |  | Activity [1]: inactive
13 | COC(=O)C[C@H](C)[C@@H](O)[C@]1(C(=O)OC)CC(=O)c2c(O)ccc(-c3ccc4c(c3O)C(=O)C[C@](C(=O)OC)([C@@]3(O)OC(=O)C[C@@H]3C)O4)c2O1 | 171% | 55.9% | 72.9% | 86.7% | 102.5% | 70.4% |  |  |  |  |  | 
14 | COC(=O)[C@@]1([C@H](O)[C@@H](C)CC(=O)O)CC(=O)c2c(ccc(-c3ccc4c(c3O)C(=O)C[C@@](C(=O)OC)([C@H](O)[C@@H](C)CC(=O)O)O4)c2O)O1 | 105.5% | 94.4% | 98.7% | 83.6% | 103.2% | 64.9% |  |  |  |  |  | 
15 | COC(=O)[C@@]12Oc3cc(C)c(-c4ccc5c(c4O)C(=O)C4=C(O)C[C@H](C)[C@H](O)[C@]4(C(=O)OC)O5)c(O)c3C(=O)C1=C(O)CC[C@H]2O | 155.8% | 68.9% | 98.9% | 5.2% | 83.9% | 76.4% | > 50 µM | > 50 µM | Not Active | 6.9 µM | > 50 µM | IC50 [11, 23]: > 50 µM
